In patent publication US9023852B2, “1, 2, 4-thiadiazol-5-ylpiperazine derivatives useful in the treatment of neurodegenerative diseases” (Remynd NV, priority 2011, dated 2015) one finds microsomal CLint and EC50 data, which are given here for 4 compounds.

Data set [1] in a line: Microsomal stability assay (intrinsic clearance), human liver microsomes. Type of data set: in vitro ADME. As to conditions: human in vitro microsomes, first value of Hum/Rat pair. The method, then: (§1) Microsomal Stability Testing—Assay Description
(§2) The microsomal stability assay measures the rate of disappearance of a test compound from an incubation containing human or animal liver microsomes and metabolic cofactors (typically NADPH). The assay is primarily used for ranking the relative CYP-mediated metabolism propensities of compounds within a chemical series and as a guide to selecting sufficiently stable compounds for pharmacokinetics and pharmacodynamics experiments. [In addition to CYPs, microsomally located enzymes which also make use of NADPH (such as […]) and those which require no cofactors (such as carboxylesterases) are active.]
(§3) Incubations are performed in 96-well deep-well plates with a final incubation volume of 600 μL. Incubations contain (finally) 1-2 μM test compound, 0.5 mg/mL liver microsomes (typically human, rat or mouse) and NADPH regenerating system. 50 μL aliquots are removed after 1, 3, 6, 9, 15, 25, 35 and 45 minutes and quenched in 150 μL acetonitrile containing internal standard. Samples are then cooled and centrifuged before analysis by LC-MS/MS.
(§4) Log peak area ratio (test compound peak area/internal standard peak area) is plotted against incubation time and a linear fit made to the data with emphasis upon the initial rate of compound disappearance. The slope of the fit is then used to calculate the intrinsic clearance: Clint(μL/min/mg)=−slope(min^−1)*1000/[protein concentration (mg/mL)]

Data set [2] is described as follows: Microsomal stability assay (intrinsic clearance), rat liver microsomes. In kind it is in vitro ADME. Particulars: rat in vitro microsomes, second value of Hum/Rat pair. As for the experimental part: as §1, §2, §3, §4
In general terms: Liver microsomes are vesicles of endoplasmic reticulum, rich in cytochrome P450 enzymes.

The test system of a further data set is M17—3TAU(P301L) cells. Description: Neuroblastoma tauopathy model: inhibition of TAU-induced cytotoxicity (LDH). In kind it is cell-based. As to conditions: Homo sapiens, 168 h; inhibition of TAU-induced toxicity (LDH), 7 days differentiation with retinoic acid. A digest of the protocol:
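BE-M17 neuroblastoma cells stably expressing human TAU-P301L, differentiated with RA (2.5 μM in added medium) for 7 days at 37 °C with compounds at a range of concentrations. Cytotoxicity as supernatant LDH over total LDH (Cytotox 96); EC50 from dose-dependent inhibition curve.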

The term microsomal CLint denotes a measure of how fast metabolising enzymes remove a compound, apart from limits set by blood flow. Read a high microsomal CLint as faster metabolism. One may read the EC50 as the concentration needed to bring the measured effect to its halfway point. A higher EC50 goes with a less potent agent.

Consider `Fc1ccc(Cc2nsc(N3CCN(Cc4ccc5c(c4)OCO5)CC3)n2)cc1` [reference compound], for which the figures for the intrinsic clearance (microsomal CLint) in data set [1] and in data set [2] were 39 µL/min/mg and 482 µL/min/mg, respectively.
Consider `Cc1ccc(-c2nsc(N3CCN(Cc4ccc5c(c4)OCO5)CC3)n2)cc1` [Example 2, 1-Benzo[1,3]dioxol-5-ylmethyl-4-(3-p-tolyl-[1,2,4]thiadiazol-5-yl)-piperazine], for which the values for the intrinsic metabolic clearance (microsomal CLint) in data set [1] and in data set [2] were 19 µL/min/mg and 48 µL/min/mg, respectively. This compound gave an EC50 in the data set on M17—3TAU(P301L) cells of 587 nM.
Regarding `O=S(=O)(c1ccc(OC(F)(F)F)cc1)N1CCN(c2nc(Cc3ccc(F)cc3)ns2)CC1` [reference compound], the figures for the intrinsic clearance (microsomal CLint) in data set [1] and in data set [2] were 46 µL/min/mg and 103 µL/min/mg, respectively.
With `Fc1cccc(-c2nsc(N3CCN(CCc4ccc(Cl)cc4)CC3)n2)c1` [Example 88, 1-[2-(4-Chloro-phenyl)-ethyl]-4-[3-(3-fluoro-phenyl)-[1,2,4]thiadiazol-5-yl]-piperazine], the microsomal CLint turned out to be 12 µL/min/mg in data set [1] and 23 µL/min/mg in data set [2]. The compound also showed an EC50 in the data set on M17—3TAU(P301L) cells of 121 nM.
